Test results as given in ChEMBL document CHEMBL4680155, “One-pot synthesis and molecular docking of some new spiropyranindol-2-one derivatives as immunomodulatory agents and in vitro antimicrobial potential with DNA gyrase inhibitor” (Eur J Med Chem, 2020).
≈ marks a conversion by molar mass, not a printed value.

Key:
Enterococcus faecalis [1] = test: Antibacterial activity against Enterococcus faecalis ATCC 29212 assessed as diameter of inhibition zone at 0.5 mg/ml incubated for 24 hrs by agar diffusion method; assay type: functional; settings: read-out: DIZ
Salmonella typhimurium [2] = test: Antibacterial activity against Salmonella typhi ATCC 6539 assessed as diameter of inhibition zone at 0.5 mg/ml incubated for 24 hrs by agar diffusion method; assay type: functional, Salmonella enterica subsp. enterica serovar Typhimurium; settings: Salmonella enterica, read-out: DIZ
Staphylococcus aureus [3] = test: Antibacterial activity against Staphylococcus aureus ATCC 29213 assessed as reduction in bacterial growth incubated for 1 day by paper disk diffusion method; assay type: functional; settings: ATCC 29213, 24 h
Candida albicans [4] = test: Antifungal activity against Candida albicans ATCC 10231 assessed as reduction in bacterial growth incubated for 1 day by paper disk diffusion method; assay type: functional; settings: ATCC 10231, 24 h
Enterococcus faecalis [5] = test: Antibacterial activity against Enterococcus faecalis ATCC 29212 assessed as reduction in bacterial growth incubated for 1 day by paper disk diffusion method; assay type: functional; settings: ATCC 29212, 24 h
Staphylococcus aureus [6] = test: Antibacterial activity against Staphylococcus aureus ATCC 29213 assessed as diameter of inhibition zone at 0.5 mg/ml incubated for 24 hrs by agar diffusion method; assay type: functional; settings: read-out: DIZ
Escherichia coli [7] = test: Antibacterial activity against Escherichia coli ATCC 25922 assessed as diameter of inhibition zone at 0.5 mg/ml incubated for 24 hrs by agar diffusion method; assay type: functional; settings: read-out: DIZ
Candida albicans [8] = test: Antifungal activity against Candida albicans ATCC 10231 assessed as diameter of inhibition zone at 0.5 mg/ml incubated for 24 hrs by agar diffusion method; assay type: functional; settings: read-out: DIZ
Aspergillus brasiliensis [9] = test: Antifungal activity against Aspergillus brasiliensis ATCC 16404 assessed as reduction in bacterial growth incubated for 3 days by paper disk diffusion method; assay type: functional; settings: ATCC 16404, 72 h, time 3 day
Salmonella typhimurium [10] = test: Antibacterial activity against Salmonella typhi ATCC 6539 assessed as reduction in bacterial growth incubated for 1 day by paper disk diffusion method; assay type: functional, Salmonella enterica subsp. enterica serovar Typhimurium; settings: Salmonella enterica, ATCC 6539, 24 h
Aspergillus brasiliensis [11] = test: Antifungal activity against Aspergillus brasiliensis ATCC 16404 assessed as diameter of inhibition zone at 0.5 mg/ml incubated for 72 hrs by agar diffusion method; assay type: functional; settings: read-out: DIZ
Escherichia coli [12] = test: Antibacterial activity against Escherichia coli ATCC 25922 assessed as reduction in bacterial growth incubated for 1 day by paper disk diffusion method; assay type: functional; settings: ATCC 25922, 24 h

## N#CC(C#N)=C1C(=O)Nc2ccc(S(=O)(=O)N3CCCCC3)cc21
Enterococcus faecalis [1]
  zone of inhibition at 500 µg/mL: 17 mm
Salmonella typhimurium [2]
  zone of inhibition at 500 µg/mL: 12 mm
Staphylococcus aureus [3]
  MIC: 133 µg/mL (≈ 389 µM)
Candida albicans [4]
  MIC: 125 µg/mL (≈ 365 µM)
Enterococcus faecalis [5]
  MIC: 62.5 µg/mL (≈ 183 µM)
Staphylococcus aureus [6]
  zone of inhibition at 500 µg/mL: 10 mm
Escherichia coli [7]
  zone of inhibition at 500 µg/mL: 13 mm
Candida albicans [8]
  zone of inhibition at 500 µg/mL: 16 mm
Aspergillus brasiliensis [9]
  MIC: 62.5 µg/mL (≈ 183 µM)
Salmonella typhimurium [10]
  MIC: 143 µg/mL (≈ 417 µM)
Aspergillus brasiliensis [11]
  zone of inhibition at 500 µg/mL: 16 mm
Escherichia coli [12]
  MIC: 125 µg/mL (≈ 365 µM)

## CCOC(=O)C1=C(N)OC(c2ccccc2)=C(C(C)=O)C12C(=O)Nc1ccc(S(=O)(=O)N3CCCCC3)cc12 (centres undefined)
Enterococcus faecalis [1]
  zone of inhibition at 500 µg/mL: 20 mm
Salmonella typhimurium [2]
  zone of inhibition at 500 µg/mL: 15 mm
Staphylococcus aureus [3]
  MIC: 88.3 µg/mL (≈ 160 µM)
Candida albicans [4]
  MIC: 62.5 µg/mL (≈ 113 µM)
Enterococcus faecalis [5]
  MIC: 17.8 µg/mL (≈ 32.2 µM)
Staphylococcus aureus [6]
  zone of inhibition at 500 µg/mL: 18 mm
Escherichia coli [7]
  zone of inhibition at 500 µg/mL: 20 mm
Candida albicans [8]
  zone of inhibition at 500 µg/mL: 13 mm
Aspergillus brasiliensis [9]
  MIC: 125 µg/mL (≈ 227 µM)
Salmonella typhimurium [10]
  MIC: 88.3 µg/mL (≈ 160 µM)
Aspergillus brasiliensis [11]
  zone of inhibition at 500 µg/mL: 17 mm
Escherichia coli [12]
  MIC: 17.8 µg/mL (≈ 32.2 µM)

## CCOC(=O)/C(C#N)=C1\C(=O)Nc2ccc(S(=O)(=O)N3CCCCC3)cc21
Enterococcus faecalis [1]
  zone of inhibition at 500 µg/mL: 15 mm
Salmonella typhimurium [2]
  zone of inhibition at 500 µg/mL: 11 mm
Staphylococcus aureus [3]
  MIC: 167 µg/mL (≈ 428 µM)
Candida albicans [4]
  MIC: 125 µg/mL (≈ 321 µM)
Enterococcus faecalis [5]
  MIC: 133 µg/mL (≈ 342 µM)
Staphylococcus aureus [6]
  zone of inhibition at 500 µg/mL: 7 mm
Escherichia coli [7]
  zone of inhibition at 500 µg/mL: 14 mm
Candida albicans [8]
  zone of inhibition at 500 µg/mL: 16 mm
Aspergillus brasiliensis [9]
  MIC: 88.3 µg/mL (≈ 227 µM)
Salmonella typhimurium [10]
  MIC: 125 µg/mL (≈ 321 µM)
Aspergillus brasiliensis [11]
  zone of inhibition at 500 µg/mL: 15 mm
Escherichia coli [12]
  MIC: 62.5 µg/mL (≈ 160 µM)

## CC(=O)C1=C(C)OC(N)=C(C#N)C12C(=O)Nc1ccc(S(=O)(=O)N3CCCCC3)cc12 (centres undefined)
Enterococcus faecalis [1]
  zone of inhibition at 500 µg/mL: 15 mm
Salmonella typhimurium [2]
  zone of inhibition at 500 µg/mL: 15 mm
Staphylococcus aureus [3]
  MIC: 167 µg/mL (≈ 376 µM)
Candida albicans [4]
  MIC: 71.1 µg/mL (≈ 161 µM)
Enterococcus faecalis [5]
  MIC: 167 µg/mL (≈ 376 µM)
Staphylococcus aureus [6]
  zone of inhibition at 500 µg/mL: 8 mm
Escherichia coli [7]
  zone of inhibition at 500 µg/mL: 15 mm
Candida albicans [8]
  zone of inhibition at 500 µg/mL: 16 mm
Aspergillus brasiliensis [9]
  MIC: 125 µg/mL (≈ 282 µM)
Salmonella typhimurium [10]
  MIC: 88.8 µg/mL (≈ 201 µM)
Aspergillus brasiliensis [11]
  zone of inhibition at 500 µg/mL: 14 mm
Escherichia coli [12]
  MIC: 62.5 µg/mL (≈ 141 µM)

## CCOC(=O)C1=C(c2ccccc2)OC(N)=C(C#N)C12C(=O)Nc1ccc(S(=O)(=O)N3CCOCC3)cc12 (centres undefined)
Enterococcus faecalis [1]
  zone of inhibition at 500 µg/mL: 19 mm
Salmonella typhimurium [2]
  zone of inhibition at 500 µg/mL: 11 mm
Staphylococcus aureus [3]
  MIC: 125 µg/mL (≈ 233 µM)
Candida albicans [4]
  MIC: 62.5 µg/mL (≈ 116 µM)
Enterococcus faecalis [5]
  MIC: 7.81 µg/mL (≈ 14.6 µM)
Staphylococcus aureus [6]
  zone of inhibition at 500 µg/mL: 13 mm
Escherichia coli [7]
  zone of inhibition at 500 µg/mL: 14 mm
Candida albicans [8]
  zone of inhibition at 500 µg/mL: 16 mm
Aspergillus brasiliensis [9]
  MIC: 125 µg/mL (≈ 233 µM)
Salmonella typhimurium [10]
  MIC: 133 µg/mL (≈ 248 µM)
Aspergillus brasiliensis [11]
  zone of inhibition at 500 µg/mL: 12 mm
Escherichia coli [12]
  MIC: 88.3 µg/mL (≈ 165 µM)

## CCOC(=O)C1=C(N)OC(C)=C(C(C)=O)C12C(=O)Nc1ccc(S(=O)(=O)N3CCCCC3)cc12 (centres undefined)
Enterococcus faecalis [1]
  zone of inhibition at 500 µg/mL: 20 mm
Salmonella typhimurium [2]
  zone of inhibition at 500 µg/mL: 15 mm
Staphylococcus aureus [3]
  MIC: 125 µg/mL (≈ 255 µM)
Candida albicans [4]
  MIC: 71.1 µg/mL (≈ 145 µM)
Enterococcus faecalis [5]
  MIC: 31.2 µg/mL (≈ 63.8 µM)
Staphylococcus aureus [6]
  zone of inhibition at 500 µg/mL: 10 mm
Escherichia coli [7]
  zone of inhibition at 500 µg/mL: 16 mm
Candida albicans [8]
  zone of inhibition at 500 µg/mL: 13 mm
Aspergillus brasiliensis [9]
  MIC: 143 µg/mL (≈ 292 µM)
Salmonella typhimurium [10]
  MIC: 71.1 µg/mL (≈ 145 µM)
Aspergillus brasiliensis [11]
  zone of inhibition at 500 µg/mL: 10 mm
Escherichia coli [12]
  MIC: 17.8 µg/mL (≈ 36.3 µM)

## CCOC(=O)C1=C(C)OC(N)=C(C#N)C12C(=O)Nc1ccc(S(=O)(=O)N3CCCCC3)cc12 (centres undefined)
Enterococcus faecalis [1]
  zone of inhibition at 500 µg/mL: 18 mm
Salmonella typhimurium [2]
  zone of inhibition at 500 µg/mL: 13 mm
Staphylococcus aureus [3]
  MIC: 83.3 µg/mL (≈ 176 µM)
Candida albicans [4]
  MIC: 62.5 µg/mL (≈ 132 µM)
Enterococcus faecalis [5]
  MIC: 71.1 µg/mL (≈ 150 µM)
Staphylococcus aureus [6]
  zone of inhibition at 500 µg/mL: 17 mm
Escherichia coli [7]
  zone of inhibition at 500 µg/mL: 17 mm
Candida albicans [8]
  zone of inhibition at 500 µg/mL: 15 mm
Aspergillus brasiliensis [9]
  MIC: 143 µg/mL (≈ 302 µM)
Salmonella typhimurium [10]
  MIC: 125 µg/mL (≈ 265 µM)
Aspergillus brasiliensis [11]
  zone of inhibition at 500 µg/mL: 10 mm
Escherichia coli [12]
  MIC: 35.5 µg/mL (≈ 75.2 µM)
